Experiments:
[1] = tested on: Csn2; test: Contralateral intraductal injection: Csn2 expression in MGs by RT-qPCR; type: in vivo, mouse
Procedure: (§1) Nulliparous analysis was performed using adult (10-12-week-old) female mice. For timed pregnancies and lactation analysis, CD-1 pregnant adult females were obtained from Charles Rivers. Embryos were examined at the time of mammary gland harvesting to confirm pregnancy state. […] Plugged mice were considered to be PD0.5 on the day of the observed plug. All females used in this study were age matched.
(§2) Mice were anesthetized with isoflurane (VetOne, 501017) Prior to intraductal injections, hair was removed from around the nipples using Nair hair remover. Injections into the duct of the nipple were performed with 33 G needles (Hamilton, 7803-05) and a volume of 40 μl per gland. Right inguinal, abdominal and thoracic glands were injected with doxorubicin (1.5 μg per gland, Cayman Chemical, 15007), nucleosides (40 μl per gland, Millipore-Sigma, ES-008-D) or Mk-1775 (50 μg per gland, Cayman Chemical, 21266), and left glands were injected with PBS or DMSO (Thermo Scientific, BP231) diluted in PBS.
For RNA isolation from FACS purified populations, mammary gland cell suspensions were blocked using Mouse BD Fc Block™ (BD Biosciences) for 10 min. Cells were subsequently resuspended on 1×PBS at a density of 10^7 cells/ml and stained with the following antibodies for 30 min on ice: anti-CD24 PE (Stem Cell Technologies, 60099PE.1), anti-CD29 PE-Cy7 (BioLegend, 102222), anti-CD45-APC (BioLegend,105826), Ter119-APC (BD Biosciences, 561033), CD31-ACP (BD Biosciences, 551262). Propidium iodide at a final concentration of 0.5 μg/ml was used for the discrimination of dead cells. Stromal, basal and luminal mammary populations were sorted using a BD FACS Aria II Cell Sorter. […] Total RNA quality was analyzed by agarose gel electrophoresis and quantified using an ND-1000 spectrophotometer (NanoDrop). cDNA was prepared from 500-1000 ng of total RNA using iScript cDNA synthesis kit (Bio-Rad, 1708841). Quantitative RT-qPCR was performed in triplicates using SsoAdvanced Universal SYBR Green Supermix, (Bio-Rad, 1725272). […]

[2] = tested on: γH2AX; test: γH2AX immunofluorescence on HC11 cells; type: cell-based, mouse; settings: HC11, doxorubicin 50 nM, 24 h post-treatment
Procedure: […] Drugs were maintained through the differentiation process and added with every change of media.
HC11 cells were fixed using ice-cold MeOH for 10 min. After washing with 1×PBS, cells were incubated for 1 h at room temperature with primary antibodies [anti-γH2AX (SCBT, sc-517348), anti-pATR (Genetex, GTX128145), anti-PLIN2 (generously provided by Jim McManaman)] in a humid incubation chamber. After incubation, cells were washed three times using 1×PBS and incubated for 1 h at room temperature in darkness using corresponding Alexa Fluor AffiniPure secondary antibodies (Jackson ImmunoResearch) and Phalloidin-iFluor 488 Reagent (Abcam, ab176753) when indicated. Cells were washed three times using 1×PBS and incubated with Hoechst 33342 (AnaSpec, AS-83218) for 10 min. Cells were mounted using fluoromount-G (Southern Biotech, 0100-01) and visualized using Zeiss Axio Imager Microscope. Integrated density of PLIN2, nuclear γH2AX and nuclear pATR was quantify using ImageJ.

[3] = tested on: γH2AX; test: Contralateral intraductal injection: γH2AX IHC in CK8+ luminal cells of MG; type: in vivo, mouse; settings: doxorubicin IDI (1.5 μg per gland) at PD12.5 vs contralateral DMSO vehicle, 24 h post-injection (PD13.5)
Procedure: as §1, §2
Mammary gland tissue was fixed in 10% neutral buffered formalin (EMD Millipore, MR0458682) at 4° C. overnight. Fixation was quenched using 0.2% glycine (Fisher Scientific, BP381) in PBS, for 1 h at room temperature. […] Integrated density of nuclear γH2AX and pATR was quantified using ImageJ.

Row | Structure (SMILES) | Csn2 expression, RT-qPCR ([1]; Mk-1775 IDI at PD16.5 vs contralateral DMSO, LD2 or LD5 MGs) | γH2AX [2] | γH2AX in CK8+ luminal cells [3] | milk production as Csn2 expression, RT-qPCR ([1]; doxorubicin IDI at PD12.5 vs contralateral DMSO, PD17.5 MGs)
1 | C=CCn1c(=O)c2cnc(Nc3ccc(N4CCN(C)CC4)cc3)nc2n1-c1cccc(C(C)(C)O)n1 [Mk-1775] | decrease | – | – | –
2 | COc1cccc2c1C(=O)c1c(O)c3c(c(O)c1C2=O)C[C@@](O)(C(=O)CO)C[C@@H]3O[C@H]1C[C@H](N)[C@H](O)[C@H](C)O1 [doxorubicin] | – | increase | Increased | increase
